Results published in patent US9822373B2, “Mutant cells for protein secretion and lignocellulose degradation” (The Regents of the University of California, priority 2011, dated 2017).

How the values were obtained:
[1] = system: cellulase genes (cbh-1, gh5-1, gh6-2); assay: Quantitative RT-PCR, cellulase gene expression stated for the genes together; type: cell-based, Neurospora crassa; settings: for induction of cellulase gene expression: 4 hour induction with 1 mM; for induction of lignocellulolytic genes: wild-type N. crassa (WT) grown on the substance as sole carbon source
Description: Conidia from strains were inoculated at an OD595 equal to 0.05 in 50 ml Vogel's salts (45) with 2% w/v sucrose in a 250 ml Erlenmeyer flask and grown under constant light at 200 rpm for 16 hours. Biomass was then spun at 4200 rpm for 10 minutes and washed in Vogel's salts twice to remove any excess sucrose. […] Cultures were induced for 4 hrs under constant light at 200 rpm. The culture biomass was then harvested by filtration over a Whatman glass microfiber filter (GF/F) on a Buchner funnel and washed with 50 ml Vogel's salts. The biomass was flash frozen in liquid nitrogen and stored at −80° C. Three independent biological duplicates (flasks) were evaluated for each time point.
Total RNA from frozen samples was isolated using Zirconia/Silica beads (0.5 mm diameter; Biospec) and a Mini-Beadbeater-96 (Biospec) with 1 mL TRIzol reagent (Invitrogen) according to the manufacturer's instructions. The total RNA was further purified by digestion with TURBO DNA-free (Ambion) and an RNeasy kit (Qiagen). RNA concentration and integrity was checked by Nanodrop and agarose gel electrophoresis.
Quantitative RT-PCR was performed using the EXPRESS One-Step SYBR GreenER Kit (Invitrogen) and the StepOnePlus Real-Time PCR System (Applied Biosystems). Reactions were performed in triplicate with a total reaction volume of 10 μl including 300 nM each forward and reverse primers and 75 ng template RNA. Data Analysis was performed by the StepOne Software (Applied Biosystems) using the Relative Quantitation/Comparative CT (ΔΔCT) setting. Data was normalized to the endogenous control actin with expression on sucrose as the reference sample.

Neurospora crassa [2] = assay: Secreted protein concentration in shake flask culture supernatant; type: cell-based; settings: for secreted protein concentration: 48 hours
Description: (§1) Strains were inoculated at an OD595 equal to 0.05 in 100 ml Vogel's salts with 1% (wt/vol) sucrose in a 250 ml Erlenmeyer flask and grown under constant light at 200 rpm for 24 hours. Cultures were then induced with 2% sucrose, 2% cellobiose, 1% sucrose/1% cellobiose, or 1% sucrose/1% Avicel®. Cultures continued to grow under constant light at 200 rpm for 5 days with supernatant collected at 1, 2, 3, 4 and 5 day. The collected supernatant was filtered through a 0.2 μm PES filter to remove biomass before being stored at −20° C. until all samples were collected. To visualize the secreted proteins, 15 μl of unconcentrated supernatant was run on a Criterion 10% Tris-HCL polyacrylamide gel and stained with Thermo Scientific GelCode Blue Stain Reagent.

[3] = system: Exoglucanase (Cellobiohydrolase I); assay: MuLac (4-Methylumbelliferyl β-D-cellobioside) exoglucanase activity of culture supernatant; type: cell-based, Neurospora crassa
Description: as §1
Exoglucanase (Cellobiohydrolase I) activity was measured using a 4-Methylumbelliferyl β-D-cellobioside (MuLac) assay. This assay mainly measures the activity of CBH-1 and activity is expressed as the change in fluorescence over time resulting in the slope of a best-fit line as an indication of enzyme activity. Prior to performing this assay, any excess sugars in the culture supernatant were removed by passing the supernatant over a 5,000 Dalton concentrator (sartorius stedim Vivaspin 500). Retained proteins were washed twice with 50 mM sodium acetate pH 5 and diluted to 2 μg/μl to assure that the assay remained in the linear range. […] The assay was performed in a Beckman Coulter Paradigm plate reader set at 40° C. with excitation/emission wavelengths of 360/465 nm with readings every 30 seconds for 10 minutes. The slope of the best-fit line represents the MuLac activity for an individual culture supernatant. The MuLac activity is normalized to the initial dilution required to obtain a 2 μg/μl concentration in order to represent the undiluted activity. The activity of recombinant cellobiohydrolase-1 was used as a standard and data is presented as a percentage of the wild type activity on Avicel® after 4 days.

Neurospora crassa [4] = assay: Avicel hydrolysis assay with shake flask culture supernatants; type: cell-based
Description: Cultures were grown in 1% sucrose for 24 hours followed by the addition of 2% sucrose or 0.2% cellobiose. Supernatant was harvested after 24 (WT, Δ3βG and Δ3βGΔcre) or 72 hours (Δ3βG). The WT Avicel® culture was grown for 5 days on 2% Avicel®, Δ3βG was grown in 1% sucrose for 24 hours followed by 48 hours in 1% Avicel® and Δ3βGΔcre was grown in 1% sucrose for 24 hours followed by 24 hours in 1% Avicel®.
Total Avicelase activity was conducted in 250 mL media bottles incubated at 50° C. on a orbital shaker at 200 rpm. Each bottle contained 1% cellulose (Avicel®) and 50 mM (pH 5.0) sodium acetate in a working volume of 50 mL. Tetracycline (10 μg/mL) was added to prevent microbial contamination. Bioreactor culture broth samples were buffer exchanged using a 10 kDa MWCO centrifugal filter to remove any soluble sugars prior to initiating hydrolysis experiments. After pre-incubating the hydrolysis mixture to 50° C., enzyme was added (1 mL filtered culture broth). Samples were taken every 4 hours for the first 12 hours and then every 12 hours thereafter for a total of 48 hours. Hydrolysis experiments were performed in triplicate.
Sucrose, fructose, glucose and cellobiose were measured on a DIONEX ICS-3000 HPLC (Dionex Corp., Sunnyvale, Calif.) using a CarboPac PA20 Analytical Column (3×150 mm) and a CarboPac PA20 guard column (3×30 mm) at 30° C. Following injection of 25 μl of diluted samples, elution was performed with 100 mM KOH (isocratic) at 0.4 ml/min. Sugars were detected using PAD, Four-Potential Carbohydrate Waveform and Peaks were analyzed using the Chromeleon software package.

Compound	induction of cellulase gene expression ([1]; WT)	induction of cellulase gene expression ([1]; Δ3βG mutant)	induction of lignocellulolytic genes [1]	other results
O=C[C@H](O)[C@@H](O)[C@@H](O)[C@H](O)CO [D-(+)-galactose]	did not significantly induce	did not significantly induce		
OC[C@H]1O[C@@H](O[C@H]2[C@H](O)[C@@H](O)[C@H](O[C@H]3[C@H](O)[C@@H](O)[C@H](O[C@H]4[C@H](O)[C@@H](O)C(O)O[C@@H]4CO)O[C@@H]3CO)O[C@@H]2CO)[C@H](O)[C@@H](O)[C@@H]1O (some centres unmarked) [cellotetraose]			not induced	
OC[C@H]1O[C@@H](O[C@H]2[C@H](O)[C@@H](O)[C@H](O[C@H]3[C@H](O)[C@@H](O)C(O)O[C@@H]3CO)O[C@@H]2CO)[C@H](O)[C@@H](O)[C@@H]1O (some centres unmarked) [cellotriose]			not induced	
OC[C@H]1O[C@@H](O[C@H]2[C@H](O)[C@@H](O)C(O)O[C@@H]2CO)[C@H](O)[C@@H](O)[C@H]1O (some centres unmarked) [lactose]	did not significantly induce	did not significantly induce		
OC[C@H]1O[C@@H](O[C@H]2C(O)O[C@H](CO)[C@@H](O)[C@@H]2O)[C@H](O)[C@@H](O)[C@@H]1O (some centres unmarked) [sophorose]	did not significantly induce	did not significantly induce		
OC[C@H]1O[C@@](CO)(O[C@H]2O[C@H](CO)[C@@H](O)[C@H](O)[C@H]2O)[C@@H](O)[C@@H]1O [sucrose]			not induced	secreted protein concentration (Neurospora crassa [2]; WT): 270 µg/mL; secreted protein (Neurospora crassa [2]; triple β-glucosidase deletion, after 2 days): 180 µg/mL; secreted protein concentration (Neurospora crassa [2]; Δcre-1): 481 µg/mL; MuLac activity ([3]; triple β-glucosidase deletion, two days): no activity towards MuLac; activity of secreted proteins towards MuLac ([3]; Δcre-1, on sucrose): do not exhibit any activity towards MuLac; hydrolysis of crystalline cellulose by culture supernatant (Neurospora crassa [4]; WT cultures grown on or induced with the substance): unable to produce glucose or cellobiose from crystalline cellulose; hydrolysis of crystalline cellulose by culture supernatant (Neurospora crassa [4]; Δ3βG cultures grown on or induced with the substance): unable to produce glucose or cellobiose from crystalline cellulose; hydrolysis of crystalline cellulose by culture supernatant (Neurospora crassa [4]; Δ3βGΔcre cultures grown on or induced with the substance): unable to produce glucose or cellobiose from crystalline cellulose
